Measurements taken from PubChem BioAssay (NCI).
“And” between values parts separate entries of the source, which are not always exact repeats. Identical values can stand only once.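 1) Cells in 96-well plates. 2) Compound, 48 h, 5 concentrations. 3) Linear interpolation between surrounding doses. 4) Unreached endpoint = highest concentration. GI50 = concentration required for 50% inhibition of growth. TGI: concentration producing complete growth inhibition.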

Experiments:
Assay in all cases: growth of human tumour cells (NCI), 48 h
[1] = system: 786-0 renal
[2] = system: A498 renal
[3] = system: A549 NSCLC
[4] = system: ACHN renal
[5] = system: BT-549 breast
[6] = system: CAKI-1 renal
[7] = system: CCRF-CEM leukemia
[8] = system: COLO 205 colon
[9] = system: DU-145 prostate
[10] = system: EKVX NSCLC
[11] = system: HCC-2998 colon
[12] = system: HCT-116 colon
[13] = system: HCT-15 colon
[14] = system: HL-60(TB) leukemia
[15] = system: HOP-62 NSCLC
[16] = system: HOP-92 NSCLC
[17] = system: HS 578T breast
[18] = system: HT29 colon
[19] = system: IGROV1 ovarian
[20] = system: K-562 leukemia
[21] = system: KM12 colon
[22] = system: LOX IMVI melanoma
[23] = system: M14 melanoma
[24] = system: MALME-3M melanoma
[25] = system: MCF7 breast
[26] = system: MDA-MB-231 breast
[27] = system: MDA-MB-435
[28] = system: MDA-N
[29] = system: MOLT-4 leukemia
[30] = system: NCI-H226 lung
[31] = system: NCI-H23 lung
[32] = system: NCI-H460 lung
[33] = system: NCI-H522 lung
[34] = system: NCI/ADR-RES ovarian
[35] = system: OVCAR-3 ovarian
[36] = system: OVCAR-4 ovarian
[37] = system: OVCAR-5 ovarian
[38] = system: OVCAR-8 ovarian
[39] = system: PC-3 prostate
[40] = system: RPMI-8226 leukemia
[41] = system: RXF 393 renal
[42] = system: SF-268 CNS
[43] = system: SF-295 CNS
[44] = system: SF-539 CNS
[45] = system: SK-MEL-2 melanoma
[46] = system: SK-MEL-28 melanoma
[47] = system: SK-MEL-5 melanoma
[48] = system: SK-OV-3 ovarian
[49] = system: SN12C renal
[50] = system: SNB-19 CNS
[51] = system: SNB-75 CNS
[52] = system: SR leukemia
[53] = system: SW-620 colon
[54] = system: T-47D breast
[55] = system: TK-10 renal
[56] = system: U251 CNS
[57] = system: UACC-257 melanoma
[58] = system: UACC-62 melanoma
[59] = system: UO-31 renal

Structure (SMILES): c1ccc(-c2cccc(-c3ccccn3)n2)nc1
- GI50 [1]: 0.113 µM
- TGI [1]: 2.87 µM and 2.03 µM
- GI50 [2]: 1.38 µM
- TGI [2]: 2.31 µM and 3.27 µM
- GI50 [3]: 0.225 µM
- TGI [3]: 4.91 µM and 13 µM
- GI50 [4]: 0.0567 µM
- TGI [4]: 1.75 µM and 1.89 µM
- GI50 [5]: 0.225 µM
- TGI [5]: 13.6 µM
- TGI [6]: 1.61 µM
- GI50 [7]: 0.058 µM
- TGI [7]: > 100 µM
- GI50 [8]: 0.0376 µM
- TGI [8]: 1.67 µM and 5.84 µM
- GI50 [9]: 0.0863 µM
- TGI [9]: 15.6 µM
- GI50 [10]: 0.111 µM
- TGI [10]: 4.89 µM and 10.9 µM
- GI50 [11]: 0.0944 µM
- TGI [12]: 1.56 µM
- GI50 [13]: 0.0546 µM
- TGI [13]: 1.4 µM and 2.98 µM
- GI50 [14]: 0.112 µM
- GI50 [15]: 0.13 µM
- TGI [15]: 1.72 µM and 12.8 µM
- GI50 [16]: 3.57 µM
- TGI [16]: 19.8 µM
- GI50 [17]: 2.55 µM
- TGI [17]: > 10 µM and 47.6 µM
- GI50 [18]: 0.0848 µM
- TGI [18]: 3.05 µM and 15.7 µM
- GI50 [19]: 0.0765 µM
- TGI [19]: 2.97 µM and 11.7 µM
- TGI [20]: > 100 µM
- GI50 [21]: 0.0751 µM
- TGI [21]: 2.27 µM and 13.7 µM
- GI50 [22]: 0.0573 µM
- TGI [22]: 12.5 µM
- GI50 [23]: 0.0924 µM
- TGI [23]: 0.434 µM and 1.07 µM
- TGI [24]: 1.11 µM and 3.48 µM
- TGI [25]: > 10 µM
- GI50 [26]: 0.086 µM
- TGI [26]: 1.89 µM and 15.2 µM
- TGI [27]: 2.28 µM and 18.4 µM
- TGI [28]: 2.19 µM
- GI50 [29]: 0.0658 µM
- TGI [29]: > 100 µM
- GI50 [30]: 0.275 µM
- TGI [30]: 4.85 µM
- TGI [31]: > 10 µM and 64.2 µM
- GI50 [32]: 0.0604 µM
- TGI [32]: 1.35 µM and 2.51 µM
- TGI [33]: > 10 µM and 19.3 µM
- GI50 [34]: 0.161 µM
- TGI [34]: 1.22 µM and 8.76 µM
- GI50 [35]: 0.11 µM
- GI50 [36]: 0.0839 µM
- TGI [36]: 3.48 µM and 13.7 µM
- GI50 [37]: 0.403 µM
- TGI [37]: 3.72 µM and 22 µM
- GI50 [38]: 0.145 µM
- GI50 [39]: 0.17 µM
- TGI [39]: 3.76 µM and 15.4 µM
- TGI [40]: > 10 µM and 95.1 µM
- TGI [41]: 1.41 µM and 7.32 µM
- GI50 [42]: 0.0814 µM
- TGI [42]: > 10 µM and 15.8 µM
- GI50 [43]: 0.0785 µM
- TGI [43]: 0.791 µM and 3.87 µM
- GI50 [44]: 0.243 µM
- TGI [44]: 2.07 µM and 13.3 µM
- GI50 [45]: 0.425 µM
- TGI [45]: 3.64 µM and 18.6 µM
- GI50 [46]: 0.182 µM
- TGI [46]: 3.25 µM and 15 µM
- GI50 [47]: 0.122 µM
- TGI [47]: 0.68 µM and 1.18 µM
- GI50 [48]: 0.0895 µM
- TGI [48]: 2.05 µM and 2.42 µM
- GI50 [49]: 0.22 µM
- TGI [49]: 9.77 µM and 16.2 µM
- GI50 [50]: 0.293 µM
- TGI [50]: > 10 µM and 16.7 µM
- GI50 [51]: 0.234 µM
- TGI [51]: > 10 µM and 17.7 µM
- GI50 [52]: 0.06 µM
- GI50 [53]: 0.198 µM
- TGI [53]: 4.54 µM and 14 µM
- GI50 [54]: 0.343 µM
- TGI [54]: > 10 µM and 12.7 µM
- GI50 [55]: 0.0595 µM
- TGI [55]: 3 µM and 7.89 µM
- GI50 [56]: 0.0901 µM
- TGI [56]: 2.86 µM and 13.4 µM
- GI50 [57]: 0.337 µM
- TGI [57]: 1.65 µM and 5.46 µM
- GI50 [58]: 0.243 µM
- TGI [58]: 2.93 µM and 4.24 µM
- GI50 [59]: 0.0373 µM
- TGI [59]: 0.425 µM and 1.29 µM

Structure (SMILES): Cc1ccc(S(=O)(=O)/N=C(\NO)Nc2ccc(Cl)c(Cl)c2)cc1
- TGI [1]: 16.2 µM
- TGI [2]: 23.7 µM
- TGI [3]: 26.9 µM
- TGI [4]: 24.9 µM
- TGI [5]: 23.8 µM
- TGI [6]: 19.2 µM
- TGI [7]: 15.9 µM
- TGI [8]: 30.8 µM
- TGI [9]: 24.6 µM
- TGI [10]: 19.9 µM
- TGI [11]: 4.93 µM
- TGI [12]: 17.7 µM
- TGI [13]: 28.4 µM
- TGI [14]: 5.42 µM
- TGI [15]: 27.4 µM
- TGI [16]: 11.8 µM
- TGI [17]: 27.3 µM
- TGI [18]: 25.5 µM
- TGI [19]: 31.3 µM
- TGI [20]: 35 µM
- TGI [21]: 25.4 µM
- TGI [22]: 19 µM
- TGI [23]: 18.3 µM
- TGI [24]: 7.41 µM
- TGI [25]: 41.3 µM
- TGI [26]: 24.3 µM
- TGI [27]: 13.6 µM
- TGI [28]: 14.5 µM
- TGI [29]: 5.45 µM
- TGI [30]: 34.7 µM
- TGI [31]: 37.2 µM
- TGI [32]: 23.7 µM
- TGI [33]: 19.1 µM
- TGI [34]: 46.3 µM
- TGI [35]: 16.9 µM
- TGI [36]: 21.8 µM
- TGI [37]: 12.6 µM
- TGI [38]: 24.4 µM
- TGI [39]: 18.4 µM
- TGI [40]: 30.9 µM
- TGI [41]: 24.2 µM
- TGI [42]: 19.9 µM
- TGI [43]: 31.8 µM
- TGI [44]: 24.5 µM
- TGI [45]: 22.4 µM
- TGI [46]: 13.3 µM
- TGI [47]: 4.82 µM
- TGI [48]: 28.5 µM
- TGI [49]: 5.58 µM
- TGI [50]: 21.4 µM
- TGI [51]: 17.6 µM
- TGI [52]: 21.5 µM
- TGI [53]: 25.4 µM
- TGI [54]: 37 µM
- TGI [55]: 27.8 µM
- TGI [56]: 16.8 µM
- TGI [57]: 15.3 µM
- TGI [58]: 24.1 µM
- TGI [59]: 18.3 µM
